pIC50: −log10 of the molar value.
Molecular target: FGFR2 (Homo sapiens (Human), UniProt P21802)
Assay: FGFR2 Biochemical Caliper Assay
Procedure: Compounds of the present invention were also tested in a FGFR2 Biochemical Caliper Assay. Compounds were prepared in 10 mM DMSO solution and serially diluted into 11 concentrations by 3-fold dilution. […] 5 uL of ATP solution (100 uM) was added to start the reaction and the plate was incubated for 90 minutes, then 70 uL of stopping buffer (0.5M EDTA) was added to terminate the reaction. Each well was analyzed using EZ reader.

FGFR2, sequence (P21802 22-821): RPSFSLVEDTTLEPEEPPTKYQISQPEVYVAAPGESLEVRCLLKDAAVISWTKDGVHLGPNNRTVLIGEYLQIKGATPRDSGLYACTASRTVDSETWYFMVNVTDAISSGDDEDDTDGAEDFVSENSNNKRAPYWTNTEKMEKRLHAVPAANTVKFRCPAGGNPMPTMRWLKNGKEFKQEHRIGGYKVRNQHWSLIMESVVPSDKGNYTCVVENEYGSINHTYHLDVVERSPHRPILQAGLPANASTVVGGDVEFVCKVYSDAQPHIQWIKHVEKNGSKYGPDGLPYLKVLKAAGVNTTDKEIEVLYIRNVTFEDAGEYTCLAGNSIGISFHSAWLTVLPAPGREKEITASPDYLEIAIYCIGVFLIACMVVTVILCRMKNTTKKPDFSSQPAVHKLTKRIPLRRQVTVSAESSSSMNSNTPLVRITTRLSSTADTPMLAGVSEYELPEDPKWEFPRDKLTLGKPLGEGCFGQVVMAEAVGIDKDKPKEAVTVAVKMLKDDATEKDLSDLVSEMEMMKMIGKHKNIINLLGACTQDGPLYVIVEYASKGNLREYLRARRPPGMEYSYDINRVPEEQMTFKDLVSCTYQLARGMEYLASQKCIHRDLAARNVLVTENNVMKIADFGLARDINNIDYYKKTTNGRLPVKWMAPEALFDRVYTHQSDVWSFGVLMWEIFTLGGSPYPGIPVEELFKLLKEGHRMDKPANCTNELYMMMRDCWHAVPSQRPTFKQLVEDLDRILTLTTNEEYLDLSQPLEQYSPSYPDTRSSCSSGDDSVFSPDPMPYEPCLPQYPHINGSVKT

## C=C(C)C(=O)Nc1ccc(-c2c(C3=CC[C@@H](C(=O)NCC(C)(C)OC)CC3)c3c(N)ncnc3n2C)cc1 (single isomer, unassigned) [Example 431]
  pIC50: 6.00 to 6.60

## C=C(C)C(=O)Nc1ccc(-c2c(C3=CC[C@H](C(=O)NCC(C)(C)OC)CC3)c3c(N)ncnc3n2C)cc1 (single isomer, unassigned) [Example 432]
  pIC50: 4.00 to 6.00

## C=C(C)C(=O)Nc1ccc(-c2c(-c3ccc(C(=O)N(C)C[C@H]4CCOC4)cc3)c3c(N)ncnc3n2C)cc1 (single isomer, unassigned) [Example 472]
  pIC50: 6.00 to 6.60

## C=C(C)C(=O)Nc1ccc(-c2c(-c3ccc(C(=O)N(C)C[C@@H]4CCOC4)cc3)c3c(N)ncnc3n2C)cc1 (single isomer, unassigned) [Example 473]
  pIC50: 6.00 to 6.60

## C=C(C)C(=O)Nc1ccc(-c2c(-c3ccc(C(=O)N4CCCC4)cc3)c3c(N)ncnc3n2C)c([C@H]2CCCO2)c1 (single isomer, unassigned) [Example 509]
  pIC50: 6.00 to 6.60

## C=C(C)C(=O)Nc1ccc(-c2c(-c3ccc(C(=O)N4CCCC4)cc3)c3c(N)ncnc3n2C)c([C@@H]2CCCO2)c1 (single isomer, unassigned) [Example 510]
  pIC50: > 7.00

## C=C(C)C(=O)Nc1ccc(-c2c(C3=CC[C@@H](Oc4ccn(C)n4)CC3)c3c(N)ncnc3n2C)cc1 (single isomer, unassigned) [Example 549]
  pIC50: 4.00 to 6.00

## C=C(C)C(=O)Nc1ccc(-c2c(C3=CC[C@H](C(=O)N4CCC[C@H]4C#N)CC3)c3c(N)ncnc3n2C)cc1 (single isomer, unassigned) [Example 574]
  pIC50: 6.00 to 6.60

## C=C(C)C(=O)Nc1ccc(-c2c(C3=CC[C@H](C(=O)N4CC[C@@H](CO)C4)CC3)c3c(N)ncnc3n2C)cc1 (single isomer, unassigned) [Example 575]
  pIC50: 4.00 to 6.00

## C=C(C)C(=O)Nc1ccc(-c2c(C3=CC[C@H](C(=O)N4CC[C@@H](F)C4)CC3)c3c(N)ncnc3n2C)cc1 (single isomer, unassigned) [Example 576]
  pIC50: 4.00 to 6.00

## Cn1c(-c2ccc(NC(=O)C3=CCC3)cc2)c(C2=CC[C@H](C(=O)N3CCCC3)CC2)c2c(N)ncnc21 (single isomer, unassigned) [Example 579]
  pIC50: 6.00 to 6.60

## C=C(C)C(=O)Nc1ccc(-c2c(C3=CC[C@H](C(=O)N4CC[C@@H](OC)C4)CC3)c3c(N)ncnc3n2C)cc1 (single isomer, unassigned) [Example 580]
  pIC50: 4.00 to 6.00

## C=C(C)C(=O)Nc1ccc(-c2c(C3=CC[C@@H](C(=O)N4CC[C@@H](CO)C4)CC3)c3c(N)ncnc3n2C)cc1 (single isomer, unassigned) [Example 583]
  pIC50: 6.00 to 6.60

## Cn1c(-c2ccc(NC(=O)[C@H]3CO3)cc2)c(-c2ccc(C(=O)N3CCCC3)cc2)c2c(N)ncnc21 (single isomer, unassigned) [Example 585]
  pIC50: 6.60 to 7.00

## C=C(C)C(=O)Nc1ccc(-c2c(C3=CC[C@@H](C(=O)N4CC[C@@H](F)C4)CC3)c3c(N)ncnc3n2C)cc1 (single isomer, unassigned) [Example 591]
  pIC50: 6.60 to 7.00

## C=C(C)C(=O)Nc1ccc(-c2c(C3=CC[C@@H](C(=O)N4CC[C@@H](OC)C4)CC3)c3c(N)ncnc3n2C)cc1 (single isomer, unassigned) [Example 593]
  pIC50: 6.00 to 6.60

## C=CCC(=O)Nc1ccc(-c2c(-c3ccc(Oc4cccc(C)n4)c(OC)c3)c3c(N)ncnc3n2C)cc1 [Example 2]
  pIC50: 6.00 to 6.60

## C=CC(=O)N1CCCc2cc(-c3c(-c4ccc(Oc5cccc(C)n5)c(OC)c4)c4c(N)ncnc4n3C)ccc21 [Example 3]
  pIC50: > 7.00

## C=CC(=O)N(C)c1ccc(-c2c(-c3ccc(Oc4cccc(C)n4)c(OC)c3)c3c(N)ncnc3n2C)cc1 [Example 6]
  pIC50: 6.60 to 7.00

## C=CC(=O)Nc1cccc(-c2c(-c3ccc(Oc4cccc(C)n4)c(OC)c3)c3c(N)ncnc3n2C)c1 [Example 7]
  pIC50: > 7.00

## C=CC(=O)N1Cc2ccc(-c3c(-c4ccc(Oc5cccc(C)n5)c(OC)c4)c4c(N)ncnc4n3C)cc2C1 [Example 8]
  pIC50: > 7.00

## C=CC(=O)N(C)c1ccc(-c2c(-c3ccc(Oc4cccc(C)n4)cc3)c3c(N)ncnc3n2C)cc1 [Example 9]
  pIC50: > 7.00

## C=CC(=O)N1CCc2cc(-c3c(-c4ccc(Oc5cccc(C)n5)c(OC)c4)c4c(N)ncnc4n3C)ccc21 [Example 10]
  pIC50: > 7.00

## C=CC(=O)Nc1ccc(-c2c(-c3ccc(Oc4cccc(C)n4)c(C)c3)c3c(N)ncnc3n2C)cc1 [Example 19]
  pIC50: > 7.00

## C=CC(=O)N1CCc2cc(-c3c(-c4ccc(Oc5cccc(C)n5)cc4)c4c(N)ncnc4n3C)ccc2C1 [Example 20]
  pIC50: 6.60 to 7.00

## C=CC(=O)Nc1ccc(-c2c(-c3ccc(Oc4cccc(C)n4)cc3)c3c(N)ncnc3n2C)cc1C [Example 21]
  pIC50: > 7.00

## C=CC(=O)Nc1cccc(-c2c(-c3ccc(Oc4cccc(C)n4)cc3)c3c(N)ncnc3n2C)c1 [Example 22]
  pIC50: > 7.00

## C=C(C)C(=O)Nc1ccc(-c2c(-c3ccc(Oc4ccccc4)cc3)c3c(N)ncnc3n2C)cc1 [Example 23]
  pIC50: 6.00 to 6.60

## C=CC(=O)Nc1ccc(-c2c(-c3cccc(OC)c3)c3c(N)ncnc3n2C)cc1 [Example 25]
  pIC50: > 7.00

## C=CC(=O)Nc1ccc(-c2c(-c3ccc(Oc4cccc(C)c4)cc3)c3c(N)ncnc3n2C)cc1 [Example 28]
  pIC50: > 7.00

## C=C(C)C(=O)Nc1ccc(-c2c(-c3ccc(Oc4cccc(C)c4)cc3)c3c(N)ncnc3n2C)cc1 [Example 29]
  pIC50: 6.00 to 6.60

## C=C(C)C(=O)Nc1ccc(-c2c(-c3ccc(Oc4ccccc4)c(OC)c3)c3c(N)ncnc3n2C)cc1 [Example 30]
  pIC50: 6.00 to 6.60

## C=C(C)C(=O)Nc1ccc(-c2c(-c3ccc(Oc4cccc(C)c4)c(OC)c3)c3c(N)ncnc3n2C)cc1 [Example 33]
  pIC50: 6.00 to 6.60

## C=CC(=O)Nc1ccc(-c2c(-c3ccc(Oc4cc(C)ccn4)c(OC)c3)c3c(N)ncnc3n2C)cc1 [Example 34]
  pIC50: > 7.00

## C=CC(=O)Nc1ccc(-c2c(Br)c3c(N)ncnc3n2C)cc1 [Example 37]
  pIC50: > 7.00

## C=CC(=O)Nc1ccc(-c2c(-c3ccc(Oc4ccncc4)c(OC)c3)c3c(N)ncnc3n2C)cc1 [Example 39]
  pIC50: 6.60 to 7.00

## C=CC(=O)Nc1ccc(-c2c(-c3ccc(Oc4ccc(C)cn4)c(OC)c3)c3c(N)ncnc3n2C)cc1 [Example 40]
  pIC50: > 7.00

## C=CC(=O)Nc1ccc(-c2c(-c3ccc(Oc4cncc(C)c4)c(OC)c3)c3c(N)ncnc3n2C)cc1 [Example 41]
  pIC50: > 7.00

## C=CC(=O)Nc1ccc(-c2c(-c3ccc(Oc4ncccc4C)c(OC)c3)c3c(N)ncnc3n2C)cc1 [Example 42]
  pIC50: > 7.00

## CCC(=O)Nc1ccc(-c2c(-c3ccc(Oc4ncccn4)c(OC)c3)c3c(N)ncnc3n2C)cc1 [Example 43]
  pIC50: 4.00 to 6.00

## C=CC(=O)Nc1ccc(-c2c(-c3ccc(Oc4ccc(C)nc4)c(OC)c3)c3c(N)ncnc3n2C)cc1 [Example 44]
  pIC50: > 7.00

## C=CC(=O)Nc1ccc(-c2c(-c3ccc(OC)c(OC)c3)c3c(N)ncnc3n2C)cc1 [Example 46]
  pIC50: > 7.00

## C=C(C)C(=O)Nc1ccc(-c2c(-c3ccc(Oc4ncccn4)cc3)c3c(N)ncnc3n2C)cc1 [Example 52]
  pIC50: > 7.00

## C=C(C)C(=O)Nc1ccc(-c2c(-c3cccc(OC)c3)c3c(N)ncnc3n2C)cc1 [Example 55]
  pIC50: 6.00 to 6.60

## C=CC(=O)Nc1ccc(-c2c(-c3ccc(Nc4ncccn4)c(OC)c3)c3c(N)ncnc3n2C)cc1 [Example 56]
  pIC50: > 7.00

## C=CC(=O)Nc1ccc(-c2c(-c3ccc(N(C)c4ncccn4)c(OC)c3)c3c(N)ncnc3n2C)cc1 [Example 57]
  pIC50: 6.60 to 7.00

Source: US11780845B2 (Relay Therapeutics, Inc., priority 2019, dated 2023)
